Test results: paper PMC11117541, “The Truncated Peptide AtPEP1^(9–23) Has the Same Function as AtPEP1^(1–23) in Inhibiting Primary Root Growth and Triggering of ROS Burst” (Antioxidants, 2024)
Where a SMILES comes first, the peptide text is derived from it.

Experiments:
[1] = system: shoot (rosette) of Arabidopsis seedlings; assay: Shoot growth, diameter of rosettes (Figure S1); type: in vivo, Arabidopsis thaliana; settings: for Mean diff, A2 - B2, diameter of rosettes: two-way ANOVA output, by table order A = mock, B = peptide, row 2 = Day 4
[2] = system: DR5::GFP (auxin maxima in root tips); assay: DR5::GFP reporter for auxin maxima in root tips; type: in vivo, Arabidopsis thaliana; settings: 500 nM peptide, four days, confocal microscopy, n = 20, one-way ANOVA
Excerpt: (§1) All plants used in this study are of the Arabidopsis thaliana accession Columbia-0 (Col-0) background, including the wild-type, mutant line pepr1-2pepr2-2 (pepr1/2, AT1G73080 and AT1G17750) and transgenic lines expressing WOX5::GFP (AT3G11260) and DR5::GFP [35]. DR5 was created by petforming site-directed mutations in a natural composite auxin response element (AuxRE) found in the soybean GH3 promoter. DR5 consisted of tandem direct repeats of 11 bp (CCTTTTGTCTC)
(§2) Five-day-old seedlings were transferred from 1/2 MS medium to 1/2 MS medium supplemented with or without elicitor for four days. The transferred seedlings were photographed every day for a total of four days. The primary root length was measured using ImageJ software (V 1.8.0). After four days of elicitor treatment, the root tips of seedlings were observed by microscope and the fluorescence from root tip cells of GFP tag seedlings were excited with a 488 nm laser. Emission was detected between 495 and 550 nm. The images were acquired with an OLYMPUS FV10-MCPUS confocal laser scanning microscope. Images were processed using LSM image examiner software (FV10-ASW3.1) and Adobe Photoshop CS4 version 11.0.2 (Adobe Systems, San Jose, CA, USA).

[3] = system: root tip cells of Arabidopsis seedlings; assay: Root tip morphology, generation of root hairs; type: in vivo, Arabidopsis thaliana; settings: peptide for 4 days, up to 500 nM, n = 20
Protocol: as §2

[4] = system: ROS burst in Arabidopsis leaves (Col-0); assay: ROS burst, luminol dependent assay in Col-0 leaves; type: cell-based, Arabidopsis thaliana; settings: for concentration at which ROS burst is triggered: Col-0 leaf pieces, luminol L-012/HRP, luminescence recorded 30 min
Protocol: The measurement of ROS burst was carried out using a luminol dependent assay. Briefly, leaf samples were cut into small pieces and placed in a 96-well plate containing 0.1 mL reaction solution (2 µg/mL horseradish peroxidase, 200 µM luminol L-012). Luminescence signal was immediately measured upon the addition elicitor peptides and recorded for a period of 30 min. The total relative light units (RLUs) measured within a 15 min time was plotted.

[5] = system: WOX5::GFP (quiescent center); assay: WOX5::GFP reporter in quiescent centre of root tips; type: in vivo, Arabidopsis thaliana; settings: 500 nM peptide, four days, confocal microscopy, n = 20
Excerpt: as §1, §2

[6] = system: primary root growth of Arabidopsis thaliana Col-0 seedlings; type: in vivo; settings: n = 20; for concentration at which primary root growth is inhibited: five-day-old Col-0 seedlings transferred to 1/2 MS with peptide, up to 4 days; for inhibitory effect on primary root growth (in words): different concentrations up to 500 nM, 4 days
Protocol: For sterile seedlings, the seeds were first surface-sterilized with 75% ethanol twice. Then, after cold treatment at 4 °C for 2 days, the seeds were germinated on 1/2 Murashige-Skoog (MS) medium supplemented with 0.8% agar and 1% sucrose. For four-week-old plants, the seeds after cold treatment at 4 °C for 2 days were grown in a 1:1 mixture of sand: humus. Both growth environments were carried out in a growth cabinet with 12 h of light, a temperature of 22 °C, and 60% humidity.
as §2

Molecule | Mean diff, A2 - B2, diameter of rosettes [1] | maximum levels of auxin in root tips (DR5::GFP fluorescence) compared with control [2] | generation of root hairs / maturation of root tip cells (in words) [3] | concentration at which ROS burst is triggered ([4]; n = 4) [nM] | WOX5 expression (WOX5::GFP signaling width) compared with control [5] | concentration at which primary root growth is inhibited [6] [nM] | concentration that completely inhibited the primary root growth ([6]; five-day-old Col-0 seedlings, 4 days on peptide medium) [nM] | total ROS within 15 min compared to the control group ([4]; 10 nM peptide) | concentration at which total ROS within 15 min was significantly higher than the control ([4]; total RLU within 15 min, one-way ANOVA, n = 4) | inhibitory effect on primary root growth (in words) [6] | inhibitory effect on the shoot (in words) ([1]; Figure S1, Table S7)
CC(C)[C@H](NC(=O)[C@H](CCCCN)NC(=O)[C@H](CCC(=O)O)NC(=O)[C@H](CCCCN)NC(=O)CNC(=O)[C@H](CCCNC(=N)N)NC(=O)[C@H](CCC(N)=O)NC(=O)[C@@H](N)CCCCN)C(=O)N[C@@H](CO)C(=O)N[C@@H](CO)C(=O)NCC(=O)N[C@@H](CCCNC(=N)N)C(=O)N1CCC[C@H]1C(=O)NCC(=O)N[C@@H](CCC(N)=O)C(=O)N[C@@H](Cc1c[nH]cn1)C(=O)N[C@@H](CC(N)=O)C(=O)O [AtPEP1^(7–23)] (H-KQRGKEKVSSGRPGQHN-OH; N-terminus and C-terminus assumed) | 0.1995 | significantly reduced | more efficient than AtPEP1^(1–23) | 10 | increase in WOX5 expression | – | – | – | – | – | –
AtPEP1^(1–23): plant elicitor peptide 1 (PEP1) from Arabidopsis thaliana, composed of 23 amino acids, immune elicitor (ATKVKAKQRGKEKVSSGRPGQHN; Elicitor peptide 1; UniProt Q9LV87 70-92, looked up) [reference compound] | 0.05081 | significantly reduced | promoted the generation of root hairs | 10 | increase in WOX5 expression | 50 | 500 | no significant difference | greater than or equal to 100 nM | – | –
AtPEP1^(5–23): truncated peptide of AtPEP1(1–23), residues 5–23 (KAKQRGKEKVSSGRPGQHN; Elicitor peptide 1; UniProt Q9LV87 74-92, looked up, fragment) | 0.1141 | significantly reduced | more efficient than AtPEP1^(1–23) | 10 | increase in WOX5 expression | – | – | – | – | – | –
AtPEP1^(9–22): C-terminal truncated peptide created from AtPEP1(9–23) (RGKEKVSSGRPGQH; Elicitor peptide 1; UniProt Q9LV87 78-91, looked up, fragment) | -0.02327 | did not show significant changes | did not promote the generation of root hairs | 100 | – | – | – | – | – | – | –
AtPEP1^(9–23): truncating eight amino acids from the N-terminus of AtPEP1(1–23) (RGKEKVSSGRPGQHN; Elicitor peptide 1; UniProt Q9LV87 78-92, looked up, fragment) | 0.1045 | significantly reduced | more efficient than AtPEP1^(1–23) | 10 | increase in WOX5 expression | – | – | – | – | – | –
AtPEP1^(11–23): truncated peptide of AtPEP1(1–23), residues 11–23 (KEKVSSGRPGQHN; Elicitor peptide 1; UniProt Q9LV87 80-92, looked up, fragment) | 0.1293 | significantly reduced | did not promote the generation of root hairs | 10 | increase in WOX5 expression | 5 | – | – | – | lower than that of AtPEP1^(1–23) | –
AtPEP1^(13–23): truncating 12 amino acids from the N-terminus of AtPEP1(1–23) (KVSSGRPGQHN; Elicitor peptide 1; UniProt Q9LV87 82-92, looked up, fragment) | 0.03538 | did not show significant changes | did not promote the generation of root hairs | 10 | – | – | – | – | – | did not show an obvious inhibitory effect | does not inhibit
